# Reference: US20070082914A1, “4-(4-Methylpiperazin-1-ylmethyl)-n-[4-methyl-3-(4-pyridin-3-yl)pyrimidin-2-ylamino)phenyl]-benzamide for treating pulmonary fibrosis” (priority 2002, published 2007)
# Where a name gives a salt, the structure may show the parent alone.
# System: Asbestos-Exposed Mice
# Assay: Asbestos-exposed mice: morphometric analysis of first alveolar duct bifurcations
# Type: in vivo
# Conditions: asbestos-exposed C57BL/6 mice, 30 days following exposure
# Description: Asbestos Exposure: Eight week old C57BL/6 mice are exposed to 15 mg/m^3 of chrysotile asbestos in inhalation chambers for a period of 5 hours, for 3 consecutive days, as described previously in detail in our earlier publications (Lasky et al. Am. J. Respir. Crit. Care Med. (1998) 157:1652-7). This asbestos exposure induces fibroblast proliferation and a morphometrically characterized lesion at the alveolar duct bifurcations (Brody et al., Am Rev Respir Dis. (1981) 123:670-9). Sham-exposed (ambient air) animals are used as controls. The groups include: sham-exposed with vehicle; asbestos-exposed with vehicle; and asbestos exposed with COMPOUND I (imatinib mesylate). Five mice from each of these […] are sacrificed 30 days following exposure and used for determining the dimensions of the alveolar duct bifurcations. […]
# Morphometric Analysis: H & E stained sections from exposed and control animals from the 30 day time point are masked. Bifurcation area is measured using an Olympus microscope with a video camera interfacing with a PC utilizing V150 imaging software (Fermin et al., J Anat. (1995) 186:469-81). The total area and perimeter of each of five first alveolar duct bifurcations is measured as previously described (Perdue et al., J. Histochem. Cytochem. (1994) 42:1061-70). […]
smiles,measurement,setting,value
"Cc1ccc(NC(=O)c2ccc(CN3CCN(C)CC3)cc2)cc1Nc1nccc(-c2cccnc2)n1 [SALT I, 4[-(4-methyl-1-piperazin-1-ylmethyl)-N-[4-methyl-3-[[4-(3-pyridinyl)-2-pyrimidinyl]amino]phenyl]benzamide methanesulfonate]",First alveolar duct area,"100 mg COMPOUND I free base/kg i.p. once per day, from the day preceding exposure and for 14 days thereafter, group mean",1875 square micrometers
same,reduction of the size of the lesion (fibrotic scar at first alveolar duct bifurcations),"100 mg free base/kg i.p. once per day, P=0.02",43%
